“And” between values parts separate entries of the source, which are not always exact repeats. Equal entries are not always repeated. Toxic doses and inconclusive results are not listed.

The test system of the assay is L1210 leukemia ip in BDF1 mice, survival T/C. As to the kind of experiment: NCI In Vivo Anticancer Drug Screen. Data for tumor model L1210 Leukemia (intraperitoneal) in B6D2F1 (BDF1) mice. The conditions noted are these: endpoint: mean survival time, higher = longer survival. In a few lines: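 Mice bearing the transplanted tumor received compound or vehicle. Survival of the treated group was divided by that of the vehicle-treated control group to give the ratio.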

Where [1] appears, read: dose: 100.0 mg/kg/injection, schedule: Q04DX002 (ip), vehicle: saline with Tween-80.
Setting [2] is: dose: 200.0 mg/kg/injection, schedule: Q04DX002 (ip), vehicle: saline with Tween-80.
[3] abbreviates: dose: 100.0 mg/kg/injection, schedule: Q01DX009 (ip), vehicle: Klucel (hydroxypropylcellulose) (HPC).
Where [4] appears, read: dose: 200.0 mg/kg/injection, schedule: Q01DX009 (ip), vehicle: Klucel (hydroxypropylcellulose) (HPC).
Where [5] appears, read: dose: 400.0 mg/kg/injection, schedule: Q01DX009 (ip), vehicle: Klucel (hydroxypropylcellulose) (HPC).
Where [6] appears, read: dose: 12.5 mg/kg/injection, schedule: Q01DX009 (ip), vehicle: saline.
The mark [7] stands for this setting: dose: 12.5 mg/kg/injection, schedule: Q04DX003 (ip), vehicle: saline.
Setting [8] is: dose: 25.0 mg/kg/injection, schedule: Q04DX003 (ip), vehicle: saline.

Regarding `COc1ccc(-c2ccccc2)cc1C(=O)CCC(=O)O`, the T/C reads like this: (dose: 100.0 mg/kg/injection, schedule: Q01DX001 (ip), vehicle: saline) 100 % of control; (dose: 200.0 mg/kg/injection, schedule: Q01DX001 (ip), vehicle: saline) 96 % of control; (dose: 400.0 mg/kg/injection, schedule: Q01DX001 (ip), vehicle: saline) 96 % of control.
In the case of `CCOC(=O)c1ccc(NS(=O)(=O)c2c(C)cc(C)cc2C)cc1`, the T/C is 104 % of control and 90 % of control (dose: 100.0 mg/kg/injection, schedule: Q01DX009 (ip), vehicle: saline with Tween-80); 97 % of control and 103 % of control under setting [1]; 95 % of control (dose: 100.0 mg/kg/injection, schedule: Q04DX003 (ip), vehicle: saline); 95 % of control and 103 % of control (dose: 200.0 mg/kg/injection, schedule: Q01DX009 (ip), vehicle: saline with Tween-80); 89 % of control and 91 % of control under setting [2]; 96 % of control (dose: 200.0 mg/kg/injection, schedule: Q04DX003 (ip), vehicle: saline). Also, the T/C was 95 % of control and 105 % of control (dose: 400.0 mg/kg/injection, schedule: Q01DX009 (ip), vehicle: saline with Tween-80); 97 % of control and 87 % of control (dose: 400.0 mg/kg/injection, schedule: Q04DX002 (ip), vehicle: saline with Tween-80); 91 % of control (dose: 400.0 mg/kg/injection, schedule: Q04DX003 (ip), vehicle: saline).
As to `O=C(NNc1ccccc1)Nc1ccccc1`, the T/C under setting [3] was 107 % of control.
Turning to `CN=C(N)Nc1ccc(NC(=O)Nc2ccc(NC(=O)Nc3ccc(NC(N)=NC)cc3)cc2)cc1`, the T/C was 100 % of control (dose: 3.75 mg/kg/injection, schedule: Q01DX Z (ip), vehicle: carboxymethylcellulose (CMC)); 110 % of control (dose: 7.5 mg/kg/injection, schedule: Q01DX Z (ip), vehicle: carboxymethylcellulose (CMC)); 170 % of control (dose: 30.0 mg/kg/injection, schedule: Q01DX Z (ip), vehicle: carboxymethylcellulose (CMC)); 100 % of control (dose: 31.0 mg/kg/injection, schedule: Q01DX Z (oral), vehicle: carboxymethylcellulose (CMC)); 110 % of control (dose: 62.0 mg/kg/injection, schedule: Q01DX Z (oral), vehicle: carboxymethylcellulose (CMC)); 95 % of control (dose: 125.0 mg/kg/injection, schedule: Q01DX Z (oral), vehicle: carboxymethylcellulose (CMC)). For the same compound, the T/C (dose: 250.0 mg/kg/injection, schedule: Q01DX Z (oral), vehicle: carboxymethylcellulose (CMC)) is 101 % of control.
In the case of `COC(=O)C1C2CCC(C2)C1C(=O)OC` (centres undefined), the T/C was 111 % of control (dose: 100.0 mg/kg/injection, schedule: Q04DX002 (ip), vehicle: Klucel (hydroxypropylcellulose) (HPC)); 93 % of control (dose: 200.0 mg/kg/injection, schedule: Q04DX002 (ip), vehicle: Klucel (hydroxypropylcellulose) (HPC)); 107 % of control (dose: 400.0 mg/kg/injection, schedule: Q04DX002 (ip), vehicle: Klucel (hydroxypropylcellulose) (HPC)).
Regarding `CCOc1ccc(Br)cc1/C=C(\C#N)c1ccc([N+](=O)[O-])cc1`, the T/C (dose: 25.0 mg/kg/injection, schedule: Q01DX009 (ip), vehicle: saline with Tween-80) is 92 % of control.
`CCc1ccc(NC(=O)c2c(Br)c(Br)c(Br)c(Br)c2C(=O)O)cc1`: the T/C runs as follows: (dose: 25.0 mg/kg/injection, schedule: Q01DX009 (ip), vehicle: Klucel (hydroxypropylcellulose) (HPC)) 96 % of control; (dose: 50.0 mg/kg/injection, schedule: Q01DX009 (ip), vehicle: Klucel (hydroxypropylcellulose) (HPC)) 104 % of control; under setting [3], 101 % of control and 107 % of control.
`COc1ccc([N+](=O)[O-])cc1NC(=O)Nc1cccc(F)c1`: the T/C reads like this: (dose: 100.0 mg/kg/injection, schedule: Q01DX009 (ip), vehicle: gum acacia) 90 % of control; (dose: 200.0 mg/kg/injection, schedule: Q01DX009 (ip), vehicle: gum acacia) 95 % of control; (dose: 400.0 mg/kg/injection, schedule: Q01DX009 (ip), vehicle: gum acacia) 90 % of control.
`O=[N+]([O-])c1ccc2c(c1)S(=O)c1cc([N+](=O)[O-])c(Br)cc1-2` (centres undefined) (tested in a mixture with another compound): the T/C reads like this: (dose: 50.0 mg/kg/injection, schedule: Q04DX002 (ip), vehicle: saline with Tween-80) 96 % of control; under setting [1], 96 % of control; under setting [2], 96 % of control.
Take `Cc1ccc(S(=O)(=O)OCC2OCC(O)C(O)C2O)cc1` (centres undefined): the T/C was 86 % of control (dose: 100.0 mg/kg/injection, schedule: Q04DX003 (ip), vehicle: saline with Tween-80); 86 % of control (dose: 200.0 mg/kg/injection, schedule: Q04DX003 (ip), vehicle: saline with Tween-80); 86 % of control (dose: 400.0 mg/kg/injection, schedule: Q04DX003 (ip), vehicle: saline with Tween-80).
Take `CCCCCCNC1=C(c2ccccc2)C(=O)C(NCCCCCC)=C(c2ccccc2)C1=O`: the T/C runs as follows: (dose: 100.0 mg/kg/injection, schedule: Q01DX001 (ip), vehicle: carboxymethylcellulose (CMC)) 88 % of control; (dose: 200.0 mg/kg/injection, schedule: Q01DX001 (ip), vehicle: carboxymethylcellulose (CMC)) 94 % of control; (dose: 400.0 mg/kg/injection, schedule: Q01DX001 (ip), vehicle: carboxymethylcellulose (CMC)) 96 % of control.
As to `CCCC(=O)OCC`, the T/C was 100 % of control under setting [3], 105 % of control under setting [4] and 97 % of control under setting [5].
As to `C=CCc1ccc(OC(=O)Nc2ccc([N+](=O)[O-])cc2OC)c(OC)c1`, the T/C is, setting by setting: under setting [3], 96 % of control; under setting [4], 93 % of control; under setting [5], 96 % of control.
For `O=[N+]([O-])c1ccccn1`, the T/C (dose: 6.25 mg/kg/injection, schedule: Q01DX009 (ip), vehicle: saline) was 102 % of control; the T/C (dose: 6.25 mg/kg/injection, schedule: Q04DX003 (ip), vehicle: saline) is 95 % of control; the T/C under setting [6] is 102 % of control; the T/C under setting [7] was 98 % of control; the T/C under setting [8] is 93 % of control; the T/C (dose: 75.0 mg/kg/injection, schedule: Q01DX001 (ip), vehicle: other) was 98 % of control.
Regarding `N#CC1(C#N)C2C=CC(C2)C1(C#N)C#N`, the T/C by setting is: (dose: 6.25 mg/kg/injection, schedule: Q01DX009 (ip), vehicle: saline with Tween-80) 97 % of control; (dose: 12.5 mg/kg/injection, schedule: Q01DX009 (ip), vehicle: saline with Tween-80) 97 % of control.
Take `O=C(Cc1ccc(CC(=O)NO)cc1)NO`: the T/C by setting is: (dose: 75.0 mg/kg/injection, schedule: Q01DX001 (ip), vehicle: saline) 100 % of control; (dose: 150.0 mg/kg/injection, schedule: Q01DX001 (ip), vehicle: saline) 96 % of control.
On to `CNN=C(C)C`, for which the T/C (dose: 12.5 mg/kg/injection, schedule: Q01DX001 (ip), vehicle: saline) is 94 % of control; the T/C under setting [6] is 105 % of control; the T/C under setting [7] is 96 % of control; the T/C (dose: 25.0 mg/kg/injection, schedule: Q01DX001 (ip), vehicle: saline) is 94 % of control; the T/C (dose: 25.0 mg/kg/injection, schedule: Q01DX009 (ip), vehicle: saline) is 100 % of control; the T/C under setting [8] was 98 % of control. In addition, the T/C runs as follows: (dose: 50.0 mg/kg/injection, schedule: Q01DX001 (ip), vehicle: saline) 97 % of control; (dose: 50.0 mg/kg/injection, schedule: Q04DX003 (ip), vehicle: saline) 98 % of control.
As to `Cc1nc(N)[nH]c(=O)c1CCCNc1ccc(F)cc1`, the T/C runs as follows: (dose: 25.0 mg/kg/injection, schedule: Q01DX001 (ip), vehicle: saline with Tween-80) 95 % of control; (dose: 50.0 mg/kg/injection, schedule: Q01DX001 (ip), vehicle: saline with Tween-80) 93 % of control; (dose: 100.0 mg/kg/injection, schedule: Q01DX001 (ip), vehicle: saline with Tween-80) 92 % of control.
Turning to `CC1(C)c2ccccc2-c2nc3ccccc3nc2C1O` (centres undefined), the T/C runs as follows: (dose: 100.0 mg/kg/injection, schedule: Q01DX001 (ip), vehicle: Klucel (hydroxypropylcellulose) (HPC)) 94 % of control; (dose: 200.0 mg/kg/injection, schedule: Q01DX001 (ip), vehicle: Klucel (hydroxypropylcellulose) (HPC)) 97 % of control; (dose: 400.0 mg/kg/injection, schedule: Q01DX001 (ip), vehicle: Klucel (hydroxypropylcellulose) (HPC)) 103 % of control.

Source of the values: PubChem BioAssay AID248 (DTP/NCI, 2004).
